In patent US7365066B2, “Pyrazolopyridine derivatives as pharmaceutical agents” (Eli Lilly and Company, priority 2002, dated 2008):

Experiments:
p38α/SAPK2α = molecular target: T1, p38α/SAPK2α (Homo sapiens, UniProt Q16539); assay: p38α in vitro kinase assay; format: biochemical; details: 5 nM p38α, 62.5 uM EGFR substrate, 100 uM ATP, 30° C. for 40 min
T1 construct: purchased Upstate Biotechnology 14-251
Experimental: Active p38α/SAPK2α was purchased from Upstate Biotechnology (cat#14-251). A known p38α substrate from EGFR was used in the assay (Young, et al. (1997) JBC 272:12116-12121).
Reactions were performed in 1× kinase buffer (25 mM Tris-HCl pH 7.5, 5 mM β-glycerophosphate, 2 mM DTT, 0.1 mM Na3VO4, 10 mM MgCl2, 1 uM Microcystin) with 5 nM p38α, 62.5 uM substrate, 40 uM to 0.2 nM compound dilution series in 1×KB/16% DMSO (final 4% DMSO concentration). Reactions were started by addition of 100 uM ATP (final concentration) with 1 uCi ^33P-γ-ATP in 1×KB and incubated at 30° C. for 40 min. Reactions were stopped with H3PO4 and quantitated on Millipore PH phosphocellulose filter plates by liquid scintillation counting on a MicroBeta JET.

[1] = molecular target: T2, TGF-beta Type I Receptor Kinase (RIT204D) (Homo sapiens, UniProt P36897, T204D); assay: TGF-β Type I receptor (RIT204D) in vitro kinase reaction; format: biochemical; details: RIT204D kinase domain, 4 uM ATP, 30° C. for 1 hr; read-out: IC50, inhibition of TGF-beta Type I Receptor Kinase
T2 construct: The 6×-HIS tagged cytoplasmic kinase domain of each receptor was expressed and purified from Sf9 insect cell lysates; 6xHis; made in house; host or cells: Sf9 insect cells
T2 sequence (P36897 148-503 T204D limits assumed): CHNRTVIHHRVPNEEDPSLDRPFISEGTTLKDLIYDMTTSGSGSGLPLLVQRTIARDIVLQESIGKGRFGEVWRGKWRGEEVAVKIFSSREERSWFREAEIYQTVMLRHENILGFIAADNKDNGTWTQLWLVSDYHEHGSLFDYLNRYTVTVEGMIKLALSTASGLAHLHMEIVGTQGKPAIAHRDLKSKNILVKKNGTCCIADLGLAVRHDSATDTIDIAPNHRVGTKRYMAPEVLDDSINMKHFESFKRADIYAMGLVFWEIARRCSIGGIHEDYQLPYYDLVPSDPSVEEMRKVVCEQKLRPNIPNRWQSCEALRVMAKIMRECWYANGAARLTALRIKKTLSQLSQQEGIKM
Experimental: (§1) For TGF-β Type I (RIT204D) and Type II (RII WT) Receptor Kinases:
(§2) The 6×-HIS tagged cytoplasmic kinase domain of each receptor was expressed and purified from Sf9 insect cell lysates as briefly described below:
(§3) Cell pellets after 48-72 hrs of infection were lysed in lysis buffer (LB: 50 mM Tris pH 7.5, 150 mM NaCl, 50 mM NaF, 0.5% NP40 with freshly added 20 mM β-mercaptoethanol, 10 mM imidazole, 1 mM PMSF, 1×EDTA-free Complete Protease Inhibitor (Boehringer Mannheim).
(§4) Cell lysates were clarified by centrifugation and 0.45 uM filtered prior to purification by Ni/NTA affinity chromatography (Qiagen).
(§5) Equilibrate with 10 CV of LB, load sample, wash with 10 CV RIPA buffer (50 mM Tris pH 7.5, 150 mM NaCl, 1% NP40, 1 mM EDTA, 0.25% sodium deoxycholate, added fresh 20 mM β-mercaptoethanol, 1 mM PMSF), wash with 10 CV LB, wash with 10 CV 1× KB (50 mM Tris pH 7.5, 150 mM NaCl, 4 mM MgCl2, 1 mM NaF, 2 mM βmercaptoethanol), elute with a linear gradient of 1× KB containing 200 mM Imidazole.
(§6) Both enzymes were approximately 90% pure and had autophosphorylation activity.
(§7) Reactions: 170-200 nM enzyme in 1× KB, compound dilution series in 1× KB/16% DMSO (20 uM to […] final concentration with 4% DMSO final concentration), reactions started by adding ATP mix (4 uM ATP/1 uCi ^33P-γ-ATP final concentrations) in 1× KB.
(§8) Reactions were incubated at 30° C. for 1 hr RIT204D or 40 min for RII WT. Reactions were stopped and quantitated using standard TCA/BSA precipitation onto Millipore FB glass fiber filter plates and by liquid scintillation counting on a MicroBeta JET.

[2] = molecular target: T3, TGF-beta Type II Receptor Kinase (RII WT) (Homo sapiens, UniProt P37173); assay: TGF-β Type II receptor (RII WT) in vitro kinase reaction; format: biochemical; details: RII WT kinase domain, 4 uM ATP, 30° C. for 40 min; read-out: IC50, inhibition of TGF-beta Type II Receptor Kinase
T3 construct: The 6×-HIS tagged cytoplasmic kinase domain of each receptor was expressed and purified from Sf9 insect cell lysates; 6xHis; made in house; host or cells: Sf9 insect cells
T3 sequence (P37173 188-567 limits assumed): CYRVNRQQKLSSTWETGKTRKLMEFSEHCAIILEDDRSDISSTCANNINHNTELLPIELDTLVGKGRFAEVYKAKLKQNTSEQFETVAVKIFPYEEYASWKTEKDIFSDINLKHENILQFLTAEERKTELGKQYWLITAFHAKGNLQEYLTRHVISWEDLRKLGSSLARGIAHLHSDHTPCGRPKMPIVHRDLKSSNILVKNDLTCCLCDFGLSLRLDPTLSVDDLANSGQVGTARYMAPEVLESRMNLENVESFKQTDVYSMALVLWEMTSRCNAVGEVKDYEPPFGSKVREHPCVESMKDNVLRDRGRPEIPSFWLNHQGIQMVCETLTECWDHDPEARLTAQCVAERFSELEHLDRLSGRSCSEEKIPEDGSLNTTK
Experimental: as §1, §2, §3, §4, §5, §6, §7, §8

[3] = tested on: TGF-β dependent luciferase production (p3TP-Lux reporter, Mv1Lu C1 cells); assay: Mv1Lu p3TP-Lux assay; format: cell-based; details: 10 pM TGF-β1, 16-20 hrs, read-out: IC50, inhibition of TGF-beta dependent luciferase production
Excerpt: A stable Mv1Lu clone (C1) containing the p3TP-Lux reporter was created by standard transfection and puromycin selection protocols. This stable clone was used to screen the example compounds for their ability to inhibit TGF-β dependent luciferase production as briefly described below: • 1. Plated Mv1Lu C1 cells in Wallac™ Black Isoplates. • 2. Allowed cells to adhere overnight. • 3. Removed media and replaced with 0.5% FBS DMEM media. • 4. Added the compound dilution series in 0.5% FBS/DMEM containing 1% DMSO such that the final compound concentration ranged from 20 uM to 0.1 nM and the final DMSO concentration was 0.2%. • 5. Incubated at 37° C./5% CO2 for 2 hrs. • 6. Added 0.5% FBS/DMEM as control or TGF-β1 diluted. in 0.5% FBS/DMEM (final concentration of 10 pM) to the −/+TGF-β wells respectively. • 7. Incubated for 16-20 hrs. at 37° C./5% CO2. • 8. Removed media and rinsed 1× with PBS. • 9. Removed PBS and lysed the cells with 1× Passive. Lysis Buffer (Promega) at room temperature. • 10. Counted relative luciferase activity on the MicroBeta JET by injecting Luciferase Assay Reagent II (PROMEGA).
The use of the above assay in measuring TGF-β responsive activity is described in Wrana, et al. Cell 71: 1003-1014 (1992).

T1 sequence (Q16539 whole entry): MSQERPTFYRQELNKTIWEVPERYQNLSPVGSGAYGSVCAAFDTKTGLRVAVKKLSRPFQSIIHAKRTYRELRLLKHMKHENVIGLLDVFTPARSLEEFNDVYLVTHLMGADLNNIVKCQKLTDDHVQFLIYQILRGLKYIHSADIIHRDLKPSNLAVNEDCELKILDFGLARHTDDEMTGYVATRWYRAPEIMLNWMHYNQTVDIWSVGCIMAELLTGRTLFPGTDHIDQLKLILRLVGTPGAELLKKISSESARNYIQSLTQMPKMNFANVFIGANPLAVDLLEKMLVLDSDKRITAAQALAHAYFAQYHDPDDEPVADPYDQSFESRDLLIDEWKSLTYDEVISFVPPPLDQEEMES

Row | Structure (SMILES) | IC50 (p38α/SAPK2α) [nM] | IC50 [1] [nM] | IC50 [2] [nM] | IC50 [3] [nM]
1 | Cc1cccc(-c2nn3ccccc3c2-c2ccnc3cc(C(=O)NCCN(C)C)ccc23)n1 [Example 78, 4-[2-(6-Methyl-pyridin-2-yl)-pyrazolo[1,5-a]pyridin-3-yl]-quinoline-7-carboxylic acid(2-dimethylamino-ethyl)-amide] | 233 | – | – | –
2 | c1ccc(-c2nn3ccccc3c2-c2ccncc2)nc1 [Example 53, 3-Pyridin-4-yl-2-pyridin-2-yl-pyrazolo[1,5-a]pyridine] | – | 806 | 20000 | 487
3 | CCc1cccc(-c2nn3ccccc3c2-c2ccc(F)c3ccccc23)n1 [Example 47, 2-(6-Ethyl-pyridin-2-yl)-3-(4-fluoro-naphthalen-1-yl)-pyrazolo[1,5-a]pyridine] | – | 175 | 5100 | 100
4 | CCc1cccc(-c2nn3ccccc3c2-c2ccnc3cc(Cl)c(Cl)cc23)n1 [Example 43, 6,7-Dichloro-4-[2-(6-ethyl-pyridin-2-yl)-pyrazolo[1,5-a]pyridin-3-yl]-quinoline] | – | 152 | 3170 | 120
5 | Cc1cccc(-c2nn3ccccc3c2-c2ccnc3cc(OCCCN(C)C)ccc23)n1 [Example 117, Dimethyl-(3-{4-[2-(6-methyl-pyridin-2-yl)-pyrazolo[1,5-a]pyridin-3-yl]-quinolin-7-yloxy}-propyl)-amine] | 78 | – | – | –
6 | Cc1cccc(-c2nn3ccccc3c2-c2ccnc3cc(Cl)c(Cl)cc23)n1 [Example 45, 6,7-Dichloro-4-[2-(6-methyl-pyridin-2-yl)-pyrazolo[1,5-a]pyridin-3-yl]-quinoline] | 390 | – | – | –
7 | CCCCc1ccc(-c2nn3ccccc3c2-c2ccnc3ccccc23)nc1 [Example 56, 4-[2-(5-Butyl-pyridin-2-yl)-pyrazolo[1,5-a]pyridin-3-yl]-quinoline] | – | 102 | 377 | 135
